Assay results published in PubChem BioAssay AID248 (DTP/NCI, 2004).
“And” between values parts separate entries of the source, which are not always exact repeats. Identical values can stand only once. Toxic doses and inconclusive results are not listed. Cut-off read from the data, not from the text of the source: active = T/C of 150% or more; inactive = T/C below 125%.

Test system: L1210 leukemia ip in BDF1 mice, survival T/C
Test: NCI In Vivo Anticancer Drug Screen. Data for tumor model L1210 Leukemia (intraperitoneal) in B6D2F1 (BDF1) mice
Conditions: higher = longer survival
Procedure, shortened: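 Transplanted-tumor mice were given test agent; controls received vehicle only. Survival readings from the two groups were divided (treated over control).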

[1] = endpoint: mean survival time, dose: 100.0 mg/kg/injection, schedule: Q01DX009 (ip), vehicle: saline
[2] = endpoint: mean survival time, dose: 200.0 mg/kg/injection, schedule: Q01DX009 (ip), vehicle: saline
[3] = endpoint: mean survival time, dose: 400.0 mg/kg/injection, schedule: Q01DX009 (ip), vehicle: saline
[4] = endpoint: mean survival time, dose: 100.0 mg/kg/injection, schedule: Q01DX009 (ip), vehicle: Klucel (hydroxypropylcellulose) (HPC)
[5] = endpoint: mean survival time, dose: 200.0 mg/kg/injection, schedule: Q01DX009 (ip), vehicle: Klucel (hydroxypropylcellulose) (HPC)
[6] = endpoint: mean survival time, dose: 400.0 mg/kg/injection, schedule: Q01DX009 (ip), vehicle: Klucel (hydroxypropylcellulose) (HPC)
[7] = endpoint: mean survival time, dose: 100.0 mg/kg/injection, schedule: Q04DX002 (ip), vehicle: Klucel (hydroxypropylcellulose) (HPC)
[8] = endpoint: mean survival time, dose: 100.0 mg/kg/injection, schedule: Q04DX003 (ip), vehicle: Klucel (hydroxypropylcellulose) (HPC)
[9] = endpoint: mean survival time, dose: 200.0 mg/kg/injection, schedule: Q04DX002 (ip), vehicle: Klucel (hydroxypropylcellulose) (HPC)
[10] = endpoint: mean survival time, dose: 200.0 mg/kg/injection, schedule: Q04DX003 (ip), vehicle: Klucel (hydroxypropylcellulose) (HPC)
[11] = endpoint: mean survival time, dose: 400.0 mg/kg/injection, schedule: Q04DX002 (ip), vehicle: Klucel (hydroxypropylcellulose) (HPC)
[12] = endpoint: mean survival time, dose: 400.0 mg/kg/injection, schedule: Q04DX003 (ip), vehicle: Klucel (hydroxypropylcellulose) (HPC)

Measured: T/C

CCOC(=O)/C(C#N)=C/C(C)c1ccccc1 (centres undefined)
inactive: [1] 108 % of control | [2] 104 % of control | [3] 95 % of control

c1c(N2CC2)cc(N2CC2)cc1N1CC1
inactive: endpoint: median survival time, dose: 100.0 mg/kg/injection, schedule: Q01DX009 (ip), vehicle: Klucel (hydroxypropylcellulose) (HPC) 108 % of control | endpoint: median survival time, dose: 200.0 mg/kg/injection, schedule: Q01DX009 (ip), vehicle: Klucel (hydroxypropylcellulose) (HPC) 97 % of control | endpoint: median survival time, dose: 400.0 mg/kg/injection, schedule: Q01DX009 (ip), vehicle: Klucel (hydroxypropylcellulose) (HPC) 92 % of control

NC(=O)NCc1ccc(CNC(N)=O)cc1
inactive: endpoint: mean survival time, dose: 100.0 mg/kg/injection, schedule: Q04DX002 (ip), vehicle: saline with Tween-80 98 % of control | endpoint: mean survival time, dose: 200.0 mg/kg/injection, schedule: Q04DX002 (ip), vehicle: saline with Tween-80 98 % of control | endpoint: mean survival time, dose: 400.0 mg/kg/injection, schedule: Q04DX002 (ip), vehicle: saline with Tween-80 115 % of control

CCCCCCCCCC(=O)N/N=C/c1cccs1
inactive: [4] 101 % of control | [5] 101 % of control | [6] 89 % of control

O=C(O)/C(=C\CCC/C=C(\CCO)C(=O)O)CCO
inactive: endpoint: mean survival time, dose: 100.0 mg/kg/injection, schedule: Q01DX001 (ip), vehicle: DMSO 100 % of control | endpoint: mean survival time, dose: 100.0 mg/kg/injection, schedule: Q01DX009 (ip), vehicle: DMSO 99 % of control | endpoint: mean survival time, dose: 200.0 mg/kg/injection, schedule: Q01DX001 (ip), vehicle: DMSO 97 % of control | endpoint: mean survival time, dose: 200.0 mg/kg/injection, schedule: Q01DX009 (ip), vehicle: DMSO 99 % of control | endpoint: mean survival time, dose: 400.0 mg/kg/injection, schedule: Q01DX001 (ip), vehicle: DMSO 102 % of control | endpoint: mean survival time, dose: 400.0 mg/kg/injection, schedule: Q01DX009 (ip), vehicle: DMSO 91 % of control

c1ccc(-c2nc3ccccc3s2)cc1
inactive: endpoint: mean survival time, dose: 100.0 mg/kg/injection, schedule: Q04DX002 (ip), vehicle: gum acacia 101 % of control | endpoint: mean survival time, dose: 200.0 mg/kg/injection, schedule: Q04DX002 (ip), vehicle: gum acacia 111 % of control | endpoint: mean survival time, dose: 400.0 mg/kg/injection, schedule: Q04DX002 (ip), vehicle: gum acacia 86 % of control

N#CCCN(C(=S)Nc1cccc(C(F)(F)F)c1)C1CCCCC1
inactive: endpoint: mean survival time, dose: 100.0 mg/kg/injection, schedule: Q01DX001 (ip), vehicle: Klucel (hydroxypropylcellulose) (HPC) 96 % of control | [4] 107 % of control and 108 % of control | [7] 102 % of control and 104 % of control | [8] 98 % of control | endpoint: mean survival time, dose: 200.0 mg/kg/injection, schedule: Q01DX001 (ip), vehicle: Klucel (hydroxypropylcellulose) (HPC) 90 % of control | [5] 101 % of control and 107 % of control | [9] 108 % of control and 114 % of control | [10] 97 % of control | endpoint: mean survival time, dose: 400.0 mg/kg/injection, schedule: Q01DX001 (ip), vehicle: Klucel (hydroxypropylcellulose) (HPC) 98 % of control | [6] 96 % of control and 112 % of control | [11] 100 % of control and 101 % of control | [12] 97 % of control

C=C(Cl)CN1CCCC(=O)c2ccccc21
inactive: [1] 100 % of control | [2] 94 % of control | [3] 96 % of control

O=C(O)/C(=C\CCCCC/C=C(\CCO)C(=O)O)CCO
inactive: [4] 100 % of control | [8] 98 % of control | [5] 96 % of control | [10] 100 % of control | [6] 99 % of control | [12] 91 % of control

Cc1ccc(S(=O)(=O)N2CCCC(Br)(Br)C(=O)c3ccccc32)cc1
inactive: [8] 100 % of control | [10] 97 % of control | [12] 96 % of control

C(=Nc1ccccc1)c1ccccc1
inactive: endpoint: mean survival time, dose: 50.0 mg/kg/injection, schedule: Q01DX001 (ip), vehicle: carboxymethylcellulose (CMC) 98 % of control | endpoint: mean survival time, dose: 100.0 mg/kg/injection, schedule: Q01DX001 (ip), vehicle: carboxymethylcellulose (CMC) 96 % of control | [1] 98 % of control | endpoint: mean survival time, dose: 100.0 mg/kg/injection, schedule: Q04DX003 (ip), vehicle: saline 104 % of control | endpoint: mean survival time, dose: 200.0 mg/kg/injection, schedule: Q01DX001 (ip), vehicle: carboxymethylcellulose (CMC) 91 % of control | [2] 100 % of control | endpoint: mean survival time, dose: 200.0 mg/kg/injection, schedule: Q04DX003 (ip), vehicle: saline 105 % of control | endpoint: mean survival time, dose: 400.0 mg/kg/injection, schedule: Q01DX001 (ip), vehicle: carboxymethylcellulose (CMC) 91 % of control

CCOC(=O)NN(C(=O)OCC)c1c(NN)n(C)c(=O)n(C)c1=O
inactive: endpoint: mean survival time, dose: 75.0 mg/kg/injection, schedule: Q04DX003 (ip), vehicle: saline 107 % of control | endpoint: mean survival time, dose: 150.0 mg/kg/injection, schedule: Q04DX003 (ip), vehicle: saline 93 % of control | endpoint: mean survival time, dose: 300.0 mg/kg/injection, schedule: Q04DX003 (ip), vehicle: saline 91 % of control

CC=C=[CH][Sn]([CH2]CC)([CH2]CC)[CH2]CC
inactive: endpoint: mean survival time, dose: 75.0 mg/kg/injection, schedule: Q01DX001 (ip), vehicle: saline 91 % of control

C[N+](C)=C(Cl)Cl
inactive: endpoint: mean survival time, dose: 100.0 mg/kg/injection, schedule: Q01DX001 (ip), vehicle: saline 97 % of control | endpoint: mean survival time, dose: 200.0 mg/kg/injection, schedule: Q01DX001 (ip), vehicle: saline 97 % of control | endpoint: mean survival time, dose: 400.0 mg/kg/injection, schedule: Q01DX001 (ip), vehicle: saline 95 % of control

ClCCCC1(c2ccc(Oc3ccccc3)cc2)OCCO1
inactive: endpoint: mean survival time, dose: 100.0 mg/kg/injection, schedule: Q01DX009 (ip), vehicle: saline with Tween-80 88 % of control | endpoint: mean survival time, dose: 100.0 mg/kg/injection, schedule: Q04DX003 (ip), vehicle: saline with Tween-80 105 % of control | endpoint: mean survival time, dose: 200.0 mg/kg/injection, schedule: Q01DX009 (ip), vehicle: saline with Tween-80 92 % of control | endpoint: mean survival time, dose: 200.0 mg/kg/injection, schedule: Q04DX003 (ip), vehicle: saline with Tween-80 95 % of control | endpoint: mean survival time, dose: 400.0 mg/kg/injection, schedule: Q01DX009 (ip), vehicle: saline with Tween-80 93 % of control | endpoint: mean survival time, dose: 400.0 mg/kg/injection, schedule: Q04DX003 (ip), vehicle: saline with Tween-80 94 % of control

CCOC(=O)C12CCCC1=CC(=O)CC2 (centres undefined)
inactive: [7] 107 % of control | [9] 121 % of control | [11] 104 % of control
